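Compound exposure: 48 hours, 5 concentrations, 96-well plates. The concentration for 50% growth inhibition is given as GI50. Definition used: TGI = concentration required for complete inhibition of growth.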
Columns and labels:
Assay in all cases: growth of human tumour cells (NCI), 48 h
[1] = system: 786-0 renal
[2] = system: A498 renal
[3] = system: A549 NSCLC
[4] = system: ACHN renal
[5] = system: BT-549 breast
[6] = system: CAKI-1 renal
[7] = system: CCRF-CEM leukemia
[8] = system: COLO 205 colon
[9] = system: DU-145 prostate
[10] = system: HCC-2998 colon
[11] = system: HCT-116 colon
[12] = system: HCT-15 colon
[13] = system: HL-60(TB) leukemia
[14] = system: HOP-62 NSCLC
[15] = system: HOP-92 NSCLC
[16] = system: HS 578T breast
[17] = system: HT29 colon
[18] = system: IGROV1 ovarian
[19] = system: K-562 leukemia
[20] = system: KM12 colon
[21] = system: LOX IMVI melanoma
[22] = system: M14 melanoma
[23] = system: MALME-3M melanoma
[24] = system: MCF7 breast
[25] = system: MDA-MB-231 breast
[26] = system: MDA-MB-435
[27] = system: MOLT-4 leukemia
[28] = system: NCI-H226 lung
[29] = system: NCI-H23 lung
[30] = system: NCI-H460 lung
[31] = system: NCI-H522 lung
[32] = system: NCI/ADR-RES ovarian
[33] = system: OVCAR-3 ovarian
[34] = system: OVCAR-4 ovarian
[35] = system: OVCAR-5 ovarian
[36] = system: OVCAR-8 ovarian
[37] = system: PC-3 prostate
[38] = system: RPMI-8226 leukemia
[39] = system: RXF 393 renal
[40] = system: SF-268 CNS
[41] = system: SF-295 CNS
[42] = system: SF-539 CNS
[43] = system: SK-MEL-2 melanoma
[44] = system: SK-MEL-28 melanoma
[45] = system: SK-MEL-5 melanoma
[46] = system: SK-OV-3 ovarian
[47] = system: SN12C renal
[48] = system: SNB-19 CNS
[49] = system: SNB-75 CNS
[50] = system: SR leukemia
[51] = system: SW-620 colon
[52] = system: T-47D breast
[53] = system: TK-10 renal
[54] = system: U251 CNS
[55] = system: UACC-257 melanoma
[56] = system: UACC-62 melanoma
[57] = system: UO-31 renal
[58] = system: EKVX NSCLC

CC(C)[C@H](CO)Nc1nc(Nc2ccc(C(=O)NCCNS(=O)(=O)c3cccc4c(N(C)C)cccc34)c(Cl)c2)c2ncn(C(C)C)c2n1
GI50 [1]: 3.15 µM | TGI [1]: > 100 µM | GI50 [2]: 1.83 µM | TGI [2]: 6.1 µM | GI50 [3]: 2.91 µM | TGI [3]: > 77.7 µM | GI50 [4]: 5.74 µM | TGI [4]: > 100 µM | GI50 [5]: 1.96 µM | TGI [5]: 7.46 µM | GI50 [6]: 5.78 µM | TGI [6]: > 100 µM | GI50 [7]: 3.01 µM | TGI [7]: > 100 µM | GI50 [8]: 1.76 µM | TGI [8]: 3.47 µM | GI50 [9]: 4.41 µM | TGI [9]: > 100 µM | GI50 [10]: 2.9 µM | TGI [10]: > 100 µM | GI50 [11]: 2.57 µM | TGI [11]: > 100 µM | GI50 [12]: 4.29 µM | TGI [12]: > 100 µM | GI50 [13]: 2.65 µM | TGI [13]: 7.43 µM | GI50 [14]: 3.69 µM | TGI [14]: > 100 µM | GI50 [15]: 2 µM | TGI [15]: > 100 µM | GI50 [16]: 2.08 µM | TGI [16]: > 100 µM | GI50 [17]: 2.5 µM | TGI [17]: > 41.8 µM | GI50 [18]: 2.62 µM | TGI [18]: > 25.1 µM | GI50 [19]: 3.92 µM | TGI [19]: > 100 µM | GI50 [20]: 0.447 µM | TGI [20]: 2.72 µM | GI50 [21]: 2.71 µM | TGI [21]: > 100 µM | GI50 [22]: 3.24 µM | TGI [22]: > 100 µM | GI50 [23]: > 25.5 µM | TGI [23]: > 100 µM | GI50 [24]: 0.987 µM | TGI [24]: > 83 µM | GI50 [25]: 1.58 µM | TGI [25]: 9.16 µM | GI50 [26]: 2.43 µM | TGI [26]: > 44.2 µM | GI50 [27]: 3.51 µM | TGI [27]: > 100 µM | GI50 [28]: 2.75 µM | TGI [28]: > 40 µM | GI50 [29]: 3 µM | TGI [29]: > 36.2 µM | GI50 [30]: 3.45 µM | TGI [30]: > 100 µM | GI50 [31]: 2.19 µM | TGI [31]: 6.1 µM | GI50 [32]: > 100 µM | TGI [32]: > 100 µM | GI50 [33]: 2.65 µM | TGI [33]: > 66.9 µM | GI50 [34]: 7.71 µM | TGI [34]: > 100 µM | GI50 [35]: 5.18 µM | TGI [35]: > 100 µM | GI50 [36]: 3.18 µM | TGI [36]: > 100 µM | GI50 [37]: 3.56 µM | TGI [37]: > 100 µM | GI50 [38]: 2.14 µM | TGI [38]: 5.63 µM | GI50 [39]: 0.381 µM | TGI [39]: 1.78 µM | GI50 [40]: 2.47 µM | TGI [40]: 34.2 µM | GI50 [41]: 1.75 µM | TGI [41]: > 100 µM | GI50 [42]: 1.68 µM | TGI [42]: 4.39 µM | GI50 [43]: 2.67 µM | TGI [43]: 7.73 µM | GI50 [44]: 2.9 µM | TGI [44]: > 100 µM | GI50 [45]: 2.07 µM | TGI [45]: 5.16 µM | GI50 [46]: > 100 µM | TGI [46]: > 100 µM | GI50 [47]: 2.81 µM | TGI [47]: > 100 µM | GI50 [48]: 2.93 µM | TGI [48]: > 100 µM | GI50 [49]: 1.75 µM | TGI [49]: > 100 µM | GI50 [50]: 1.87 µM | TGI [50]: > 24.9 µM | GI50 [51]: 2.56 µM | TGI [51]: > 100 µM | GI50 [52]: 2.93 µM | TGI [52]: > 82.5 µM | GI50 [53]: 7.62 µM | TGI [53]: > 100 µM | GI50 [54]: 2.72 µM | TGI [54]: > 100 µM | GI50 [55]: 2.66 µM | TGI [55]: > 100 µM | GI50 [56]: 3.4 µM | TGI [56]: > 100 µM | GI50 [57]: 9.78 µM | TGI [57]: > 100 µM

CCCc1cc2c(=O)c(C(=O)OC)c[nH]c2cc1N(CC)CC
GI50 [1]: 19.6 µM | TGI [1]: 39.8 µM | GI50 [2]: 82.3 µM | TGI [2]: > 100 µM | GI50 [3]: 38.3 µM | TGI [3]: > 100 µM | GI50 [4]: 17.6 µM | TGI [4]: 60.9 µM | GI50 [5]: 39.8 µM | TGI [5]: > 100 µM | GI50 [6]: 11.7 µM | TGI [6]: 29.1 µM | GI50 [7]: 85.8 µM | TGI [7]: > 100 µM | GI50 [8]: 46.5 µM | TGI [8]: > 100 µM | GI50 [9]: 20.2 µM | TGI [9]: 49.6 µM | GI50 [58]: 16.9 µM | TGI [58]: 42.7 µM | GI50 [10]: 76.3 µM | TGI [10]: > 100 µM | GI50 [11]: 21.5 µM | TGI [11]: 59.1 µM | GI50 [12]: 76.7 µM | TGI [12]: > 100 µM | GI50 [13]: 62.5 µM | TGI [13]: > 100 µM | GI50 [14]: 20.4 µM | TGI [14]: 37.9 µM | GI50 [15]: 19.2 µM | TGI [15]: 52.7 µM | GI50 [16]: 19.6 µM | TGI [16]: 48.1 µM | GI50 [17]: 72.1 µM | TGI [17]: > 100 µM | GI50 [18]: > 100 µM | TGI [18]: > 100 µM | GI50 [19]: 80.5 µM | TGI [19]: > 100 µM | GI50 [20]: 45.5 µM | TGI [20]: > 100 µM | GI50 [21]: 25.8 µM | TGI [21]: 77.9 µM | GI50 [22]: 57 µM | TGI [22]: > 100 µM | GI50 [23]: 64.8 µM | TGI [23]: > 100 µM | GI50 [24]: 73.6 µM | TGI [24]: > 100 µM | GI50 [25]: 30.5 µM | TGI [25]: 84.5 µM | GI50 [26]: 47.5 µM | TGI [26]: > 100 µM | GI50 [27]: > 100 µM | TGI [27]: > 100 µM | GI50 [28]: 34.6 µM | TGI [28]: > 100 µM | GI50 [29]: 44.5 µM | TGI [29]: > 100 µM | GI50 [30]: 31.6 µM | TGI [30]: > 100 µM | GI50 [31]: 38.5 µM | TGI [31]: > 100 µM | GI50 [32]: 24.2 µM | TGI [32]: 72.8 µM | GI50 [33]: 16.4 µM | TGI [33]: 38.3 µM | GI50 [34]: 22.4 µM | TGI [34]: 74.5 µM | GI50 [35]: > 100 µM | TGI [35]: > 100 µM | GI50 [36]: 29.4 µM | TGI [36]: 95.7 µM | GI50 [37]: 23.3 µM | TGI [37]: > 100 µM | GI50 [38]: 63.2 µM | TGI [38]: > 100 µM | GI50 [39]: 31.4 µM | TGI [39]: 85 µM | GI50 [40]: 28.6 µM | TGI [40]: 87.6 µM | GI50 [41]: 8.16 µM | TGI [41]: 24.8 µM | GI50 [42]: 34 µM | TGI [42]: > 100 µM | GI50 [43]: 36.1 µM | TGI [43]: 97.8 µM | GI50 [44]: 81.7 µM | TGI [44]: > 100 µM | GI50 [45]: 31.9 µM | TGI [45]: > 100 µM | GI50 [46]: 36.5 µM | TGI [46]: > 100 µM | GI50 [47]: 41.2 µM | TGI [47]: > 100 µM | GI50 [48]: 28.6 µM | TGI [48]: 77.8 µM | GI50 [49]: 18.6 µM | TGI [49]: 46.3 µM | GI50 [50]: 39.3 µM | TGI [50]: > 100 µM | GI50 [51]: 45.6 µM | TGI [51]: > 100 µM | GI50 [52]: 53 µM | TGI [52]: > 100 µM | GI50 [53]: 69.1 µM | TGI [53]: > 100 µM | GI50 [54]: 18.2 µM | TGI [54]: 39.8 µM | GI50 [55]: > 100 µM | TGI [55]: > 100 µM | GI50 [56]: > 100 µM | TGI [56]: > 100 µM | GI50 [57]: 28.5 µM | TGI [57]: > 100 µM
